Reference: patent US5688938A, “Calcium receptor-active molecules” (priority 1995, dated 1997)
Entries after “also recorded” stand apart in the source; their conditions may differ. Read-outs that look alike come from different tables or passages of the source.

What was measured:
Format in all cases: cell-based
[1] = target: T1, bovine parathyroid cell calcium receptor (Bos taurus, UniProt P35384); assay: Cl^- current in Xenopus oocytes expressing BoPCaR 1
T1 construct: expressed in transfected cells; host or cells: Xenopus laevis oocytes injected with cRNA from BoPCaR 1
T1 sequence (P35384 21-1085 limits assumed): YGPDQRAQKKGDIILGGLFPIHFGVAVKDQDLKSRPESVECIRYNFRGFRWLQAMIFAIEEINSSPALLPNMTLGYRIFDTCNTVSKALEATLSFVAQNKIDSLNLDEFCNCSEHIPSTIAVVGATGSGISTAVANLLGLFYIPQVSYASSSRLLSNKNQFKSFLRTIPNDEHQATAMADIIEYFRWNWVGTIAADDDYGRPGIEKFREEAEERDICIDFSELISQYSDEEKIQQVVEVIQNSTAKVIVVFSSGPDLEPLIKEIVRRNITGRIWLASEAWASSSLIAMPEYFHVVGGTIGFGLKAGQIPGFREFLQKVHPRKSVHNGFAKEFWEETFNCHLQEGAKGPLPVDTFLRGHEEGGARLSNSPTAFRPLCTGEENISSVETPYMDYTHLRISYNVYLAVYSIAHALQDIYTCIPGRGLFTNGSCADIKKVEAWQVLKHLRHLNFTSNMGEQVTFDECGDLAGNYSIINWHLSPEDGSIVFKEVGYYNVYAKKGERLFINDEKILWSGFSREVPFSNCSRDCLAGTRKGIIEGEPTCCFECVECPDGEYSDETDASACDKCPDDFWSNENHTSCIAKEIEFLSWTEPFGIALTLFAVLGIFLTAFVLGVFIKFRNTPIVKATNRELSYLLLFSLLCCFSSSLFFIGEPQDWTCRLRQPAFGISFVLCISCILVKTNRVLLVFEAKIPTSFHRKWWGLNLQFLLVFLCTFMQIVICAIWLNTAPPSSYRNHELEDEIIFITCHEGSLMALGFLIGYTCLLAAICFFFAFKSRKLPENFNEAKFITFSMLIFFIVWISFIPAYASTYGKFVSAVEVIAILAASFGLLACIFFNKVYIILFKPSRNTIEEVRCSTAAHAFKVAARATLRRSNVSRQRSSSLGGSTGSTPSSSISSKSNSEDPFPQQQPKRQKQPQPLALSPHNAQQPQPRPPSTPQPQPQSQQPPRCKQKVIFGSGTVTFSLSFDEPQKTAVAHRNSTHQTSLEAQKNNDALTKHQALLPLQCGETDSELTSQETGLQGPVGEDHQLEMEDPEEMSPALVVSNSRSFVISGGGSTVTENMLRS
Procedure: These responses are mediated by the following series of biochemical events:
Xenopus oocytes were injected with BoPCaR 1, the 5.3 Kb cDNA encoding a bovine parathyroid cell calcium receptor as described in Example 25. After two to three days, Cl^- currents were examined in the oocytes using a two-electrode voltage clamp.
Xenopus oocytes were injected with BoPCaR 1 as described in Example 25. After two to three days, Cl^- currents were examined in the oocytes using two electrode voltage clamp.

C-cell calcium receptor = target: T2, C-cell calcium receptor (Rattus norvegicus, UniProt P48442); assay: cell-based; settings: for EC50: rMTC 6-23 cells
T2 construct: Neoplastic C-cells derived from a rat medullary thyroid carcinoma (rMTC 6-23) were obtained from American Type Culture Collection; host or cells: rMTC 6-23 cells
T2 sequence (P48442 20-1079): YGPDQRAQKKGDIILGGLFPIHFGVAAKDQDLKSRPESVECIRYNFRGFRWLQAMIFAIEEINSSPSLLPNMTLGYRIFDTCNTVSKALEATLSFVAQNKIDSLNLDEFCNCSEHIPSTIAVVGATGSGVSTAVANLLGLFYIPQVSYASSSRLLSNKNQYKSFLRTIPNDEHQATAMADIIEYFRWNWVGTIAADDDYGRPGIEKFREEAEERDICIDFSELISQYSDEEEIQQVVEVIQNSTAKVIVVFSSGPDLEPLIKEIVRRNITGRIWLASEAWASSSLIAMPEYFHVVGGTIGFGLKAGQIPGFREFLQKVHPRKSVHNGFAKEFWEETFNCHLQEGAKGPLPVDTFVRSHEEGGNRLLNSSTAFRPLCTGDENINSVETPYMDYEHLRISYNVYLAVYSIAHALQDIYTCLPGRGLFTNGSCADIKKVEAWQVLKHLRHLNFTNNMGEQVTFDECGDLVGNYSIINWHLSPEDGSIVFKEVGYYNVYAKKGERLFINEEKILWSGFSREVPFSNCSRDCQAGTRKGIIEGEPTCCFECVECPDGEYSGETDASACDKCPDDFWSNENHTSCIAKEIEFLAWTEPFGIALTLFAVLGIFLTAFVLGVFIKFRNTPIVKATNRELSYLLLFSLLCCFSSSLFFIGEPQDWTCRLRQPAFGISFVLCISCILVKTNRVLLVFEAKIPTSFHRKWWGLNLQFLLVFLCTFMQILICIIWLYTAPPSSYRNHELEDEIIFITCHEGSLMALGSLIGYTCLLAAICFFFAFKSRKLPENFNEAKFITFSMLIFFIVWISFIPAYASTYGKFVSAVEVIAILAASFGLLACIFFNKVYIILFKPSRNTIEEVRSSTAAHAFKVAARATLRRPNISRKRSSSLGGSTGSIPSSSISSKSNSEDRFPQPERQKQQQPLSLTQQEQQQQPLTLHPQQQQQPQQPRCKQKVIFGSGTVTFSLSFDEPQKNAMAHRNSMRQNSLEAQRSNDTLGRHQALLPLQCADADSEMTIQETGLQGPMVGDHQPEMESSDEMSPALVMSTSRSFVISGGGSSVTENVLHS
From the text: To assess the effects of molecular polycations on C-cells, a neoplastic cell line, derived from a rat medullary thyroid carcinoma (rMTC 6-23 cells) was used.

[2] = tested on: osteoclast calcium receptor; assay: [Ca^2+]i (indo-1) in rat osteoclasts
[3] = target: T3, parathyroid cell calcium receptor (Bos taurus, UniProt P35384); assay: cell-based
T3 sequence (P35384 21-1085 limits assumed): T1 sequence (P35384 21-1085 limits assumed)
Procedure: For example,.bovine parathyroid cells loaded with fura-2 are initially suspended in buffer containing 0.5 mM CaCl2. A test substance is added to the cuvette in a small volume (5-15 μl) and changes in the fluorescence signal are measured. Cumulative increases in the concentration of the test substance are made in the cuvette until some predetermined concentration is achieved or no further changes in fluorescence are noted.
This section describes procedures used to obtain and treat parathyroid cells from calves and humans. […] Human parathyroid glands, were obtained from patients undergoing surgical removal of parathyroid tissue for primary or uremic hyperparathyroidism (uremic HPT), and were treated similarly to bovine tissue.
Glands were trimmed of excess fat and connective tissue and then minced with fine scissors into cubes approximately 2-3 mm on a side. Dissociated parathyroid cells were prepared by collagenase digestion and then purified by centrifugation in Percoll buffer. The resultant parathyroid cell preparation was essentially devoid of red blood cells, adipocytes, and capillary tissue as assessed by phase contrast microscopy and Sudan black B staining. Dissociated and purified parathyroid cells were present as small clusters containing 5 to 20 cells.
The cells were then transferred to plastic flasks (75 or 150 cm^2 ; Falcon) and incubated overnight at 37° C. in a humid atmosphere of 5% CO2. No serum is added to these overnight cultures, since its presence allows the cells to attach to the plastic, undergo proliferation, and dedifferentiate. Cells cultured under the above conditions were readily removed from the flasks by decanting, and show the same viability as freshly prepared cells.
The cells were then pelleted, resuspended in the same buffer, but lacking the ester, and incubated a further 15 minutes at 37° C. The cells were subsequently washed twice with PCB containing 0.5 mM CaCl2 and 0.5% BSA and maintained at room temperature (about 20° C.). Immediately before use, the cells were diluted five-fold with prewarmed 0.5mM CaCl2 -PCB to obtain a final BSA concentration of 0.1%. The concentration of cells in the cuvette used for fluorescence recording was 1-2×10^6 /ml.
The fluorescence of indicator-loaded cells was measured at 37° C. in a spectrofluorimeter (Biomedical Instrumentation Group, University of Pennsylvania, Philadelphia, Pa.) equipped with a thermostated cuvette holder and magnetic stirrer using excitation and emission wavelengths of 340 and 510 nm, respectively. […] Leakage of dye is dependent on temperature and most occurs within the first 2 minutes after warming the cells in the cuvette. Dye leakage increases only very slowly thereafter. To correct the calibration for dye leakage, cells were placed in the cuvette and stirred at 37° C. for 2-3 minutes. The cell suspension was then removed, the cells pelleted, and the supernatant returned to a clean cuvette. […] This estimate was subtracted from the apparent Fmin.
Dissociated bovine parathyroid cells were purified on gradients of Percoll and cultured overnight in serum-free medium. […] That is,

SMILES: NCCCNCCCCNCCCNCCCNCCCNC(=O)Cc1c[nH]c2ccccc12 [NPS 019, reference compound]
- Cl^- current response in absence of extracellular Ca^2+ [1]: persisted
- Cl^- current ([1]; 1 mM extracellular Ca^2+): oscillatory increases in the Cl^- current
- transient increase in [Ca^2+]i in C-cells (C-cell calcium receptor; 10 μM, 0.5 mM [Ca^2+]): refractory to inhibition by La^3+
- EC50 (C-cell calcium receptor; Table 6, read-out: EC50 C-CELL): 5 µM
- EC50 (C-cell calcium receptor; read-out: EC50 for mobilizing intracellular Ca^2+ in C-cells): 5 µM
- EC50 ([2]; Table 6, rat osteoclasts): > 300 µM
- EC50 ([3]; Table 6, bovine parathyroid cells, read-out: EC50 PARATHYROID): 40 µM

SMILES: COc1cccc([C@@H](C)NCCCc2ccccc2Cl)c1 [NPS R-568, (R)-(+)-N-[3-(2-chlorophenyl)propyl]-α-methyl-3-methoxybenzylamine]
- Cl^- current response in absence of extracellular Ca^2+ [1]: abolished
- effect on concentration-response curve of NPS 019 [1]: shifts the concentration-response curve of NPS 019 to the left
- effect on responses to submaximal extracellular Ca^2+ [1]: potentiated the responses
- [Ca^2+]i response in Ca^2+-free buffer ([3]; no extracellular Ca^2+, NPS R-467 30 μM): fails to evoke increases in [Ca^2+ ]i

SMILES: NC[C@@H]1O[C@H](O[C@H]2[C@@H](O)[C@H](O[C@@H]3[C@@H](O)[C@H](N)C[C@H](N)[C@H]3O[C@H]3O[C@H](CN)[C@@H](O)[C@H](O)[C@H]3N)O[C@@H]2CO)[C@H](N)[C@@H](O)[C@@H]1O [Neomycin]
- inward currents ([1]; Ca^2+ 5 mM, Mg^2+ 1.0-20 mM, Gd^3+ 600 μM, neomycin 200 μM): large inward currents
- effect on basal [Ca^2+]i in C-cells (C-cell calcium receptor): without effect on basal [Ca^2+ ]i
- effect on osteoclast response to extracellular Ca^2+ [2]: did not block the increase
- increase in [Ca^2+]i in osteoclasts [2]: failed to evoke any increase in [Ca^2+ ]i; also recorded: Neither neomycin (10 mM) nor spermine (10 or 20 mM) caused increases
- increase in [Ca^2+]i in osteoclasts or effect on basal ([2]; neomycin B 5 mM): without effect on basal [Ca^2+ ]i
